Experimental data reported in patent publication US10597388B2, “Pyridazinone herbicides” (FMC CORPORATION, priority 2014, dated 2020).

Tests used:
Test in all cases: Test C greenhouse herbicide test, pre- and postemergence
Format in all cases: in vivo
[1] = system: ragweed (common ragweed, Ambrosia elatior)
Method in brief: (§1)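 Visual ratings on a 0 to 100 scale (0 = no effect, 100 = complete control) versus untreated controls, scored 13–15 d after treatment. Soil-applied preemergence to seeded loam/sand; foliar postemergence to 1- to 4-leaf plants (2–18 cm) in peat-vermiculite mix; compounds formulated in solvent plus surfactant.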

[2] = system: soybean (Glycine max)
Method in brief: as §1

[3] = system: lambsquarters (Chenopodium album)
Method in brief: as §1

[4] = system: nutsedge, yellow (yellow nutsedge, Cyperus esculentus)
Method in brief: as §1

[5] = system: waterhemp (common waterhemp, Amaranthus rudis)
Method in brief: as §1

[6] = system: foxtail, giant (giant foxtail, Setaria faberii)
Method in brief: as §1

[7] = system: oilseed rape (Brassica napus)
Method in brief: as §1

[8] = system: wheat (winter wheat, Triticum aestivum)
Method in brief: as §1

[9] = system: crabgrass, large (large crabgrass, Digitaria sanguinalis)
Method in brief: as §1

[10] = system: galium (catchweed bedstraw, Galium aparine)
Method in brief: as §1

[11] = system: barnyardgrass (Echinochloa crus-galli)
Method in brief: as §1

[12] = system: johnsongrass (Sorghum halepense)
Method in brief: as §1

[13] = Postemergence, 31 g ai/ha, scale 0 to 100 (0 no effect, 100 complete control)
[14] = Postemergence, 125 g ai/ha, scale 0 to 100, 0 is no effect, 100 is complete control
[15] = Postemergence, 250 g ai/ha, scale 0 to 100, 0 no effect, 100 complete control, 13 to 15 d
[16] = Preemergence, 31 g ai/ha, scale 0 to 100, 0 is no effect, 100 is complete control
[17] = Preemergence, 62 g ai/ha, scale 0 to 100, 0 is no effect, 100 is complete control
[18] = Preemergence, 125 g ai/ha, scale 0 to 100, 0 is no effect, 100 is complete control
[19] = Preemergence, 250 g ai/ha, scale 0 to 100, 0 no effect, 100 complete control
[20] = postemergence, 62 g ai/ha, scale 0 to 100, 0 no effect, 100 complete control
[21] = Postemergence, 62 g ai/ha, 0 to 100 scale (0 no effect, 100 complete control)

CCC(=O)Oc1c(C)nn(C)c(=O)c1-c1ccc(F)c2ccccc12 [Compound 113]
10: Plant response rating, Barnyardgrass [11, 16] | Plant response rating, Johnsongrass [12, 14] | Plant response rating, Johnsongrass [12, 17]
55: Plant response rating, Soybean [2, 15] | Plant response rating, Nutsedge, Yellow [4, 16]
60: Plant response rating, Oilseed Rape [7, 18]
35: Plant response rating, Wheat [8, 18] | Plant response rating, Crabgrass, Large [9, 17] | Plant response rating, Barnyardgrass [11, 14] | Plant response rating, Barnyardgrass [11, 17] | Barnyardgrass plant response rating [11, 20]
45: Plant response rating, Soybean [2, 17] | Plant response rating, Barnyardgrass [11, 15]
30: Plant response rating, Foxtail, Giant [6, 14] | Plant response rating, Wheat [8, 17] | Johnsongrass plant response rating [12, 19]
50: Wheat plant response rating [8, 19]
70: Plant response rating, Nutsedge, Yellow [4, 13] | Plant response rating, Nutsedge, Yellow [4, 17] | Plant response rating, Foxtail, Giant [6, 15] | Plant response rating, Crabgrass, Large [9, 15]
98: Plant response rating, Ragweed [1, 14] | Plant response rating, Lambsquarters [3, 13] | Plant response rating, Waterhemp [5, 18] | Waterhemp plant response rating [5, 19] | Plant response rating, Galium [10, 18] | Galium plant response rating [10, 19]
20: Plant response rating, Foxtail, Giant [6, 13] | Plant response rating, Johnsongrass [12, 15] | Plant response rating, Johnsongrass [12, 18]
90: Plant response rating, Ragweed [1, 13] | Plant response rating, Lambsquarters [3, 16] | Plant response rating, Lambsquarters [3, 18] | Plant response rating, Waterhemp [5, 14] | Oilseed Rape plant response rating [7, 19] | Crabgrass, Large plant response rating [9, 19] | Plant response rating, Galium [10, 17]
65: Plant response rating, Ragweed [1, 16] | Plant response rating, Soybean [2, 18] | Plant response rating, Barnyardgrass [11, 18]
85: Plant response rating, Ragweed [1, 18] | Plant response rating, Lambsquarters [3, 17] | Plant response rating, Nutsedge, Yellow [4, 14] | Plant response rating, Nutsedge, Yellow [4, 18] | Nutsedge, Yellow plant response rating [4, 19] | Plant response rating, Waterhemp [5, 13] | Plant response rating, Waterhemp [5, 16]
95: Plant response rating, Ragweed [1, 17] | Ragweed plant response rating [1, 19] | Plant response rating, Nutsedge, Yellow [4, 15] | Plant response rating, Galium [10, 13] | Plant response rating, Galium [10, 14] | Plant response rating, Galium [10, 15] | Barnyardgrass plant response rating [11, 19]
5: Plant response rating, Wheat [8, 13] | Plant response rating, Wheat [8, 14] | Plant response rating, Crabgrass, Large [9, 13]
25: Plant response rating, Crabgrass, Large [9, 14] | Plant response rating, Barnyardgrass [11, 13]
80: Soybean plant response rating [2, 19]
15: Plant response rating, Soybean [2, 13] | Plant response rating, Wheat [8, 15] | Crabgrass, Large plant response rating [9, 20]
0: Plant response rating, Soybean [2, 16] | Plant response rating, Oilseed Rape [7, 13] | Plant response rating, Oilseed Rape [7, 14] | Plant response rating, Oilseed Rape [7, 15] | Plant response rating, Oilseed Rape [7, 16] | Plant response rating, Oilseed Rape [7, 17] | Plant response rating, Wheat [8, 16] | Plant response rating, Crabgrass, Large [9, 16] | Plant response rating, Johnsongrass [12, 13] | Plant response rating, Johnsongrass [12, 16]
100: Plant response rating, Ragweed [1, 15] | Plant response rating, Lambsquarters [3, 14] | Plant response rating, Lambsquarters [3, 15] | Lambsquarters plant response rating [3, 19] | Plant response rating, Waterhemp [5, 15] | Plant response rating, Waterhemp [5, 17] | Plant response rating, Galium [10, 16]
75: Plant response rating, Crabgrass, Large [9, 18]
40: Plant response rating, Soybean [2, 14]

Cc1nn(C)c(=O)c(-c2c(C)sc3ccc(C(F)(F)F)cc23)c1O [Compound 121]
75: Plant response rating, Ragweed [1, 13] | Plant response rating, Nutsedge, Yellow [4, 15] | Plant response rating, Waterhemp [5, 14]
35: Plant response rating, Ragweed [1, 16] | Crabgrass, Large plant response rating [9, 19]
15: Wheat plant response rating [8, 19]
80: Plant response rating, Lambsquarters [3, 17]
60: Plant response rating, Lambsquarters [3, 16] | Plant response rating, Waterhemp [5, 13] | Barnyardgrass plant response rating [11, 19]
90: Plant response rating, Lambsquarters [3, 13] | Plant response rating, Foxtail, Giant [6, 18] | Plant response rating, Galium [10, 13] | Plant response rating, Galium [10, 16] | Plant response rating, Galium [10, 17]
95: Plant response rating, Ragweed [1, 14] | Plant response rating, Ragweed [1, 17] | Plant response rating, Waterhemp [5, 17] | Foxtail, Giant plant response rating [6, 19] | Plant response rating, Galium [10, 14] | Plant response rating, Galium [10, 15]
10: Plant response rating, Nutsedge, Yellow [4, 16] | Plant response rating, Wheat [8, 18] | Plant response rating, Crabgrass, Large [9, 13] | Plant response rating, Crabgrass, Large [9, 17] | Plant response rating, Crabgrass, Large [9, 18] | Plant response rating, Barnyardgrass [11, 17] | Johnsongrass plant response rating [12, 19]
0: Plant response rating, Soybean [2, 13] | Plant response rating, Soybean [2, 14] | Plant response rating, Soybean [2, 15] | Plant response rating, Soybean [2, 16] | Plant response rating, Soybean [2, 17] | Plant response rating, Soybean [2, 18] | Soybean plant response rating [2, 19] | Plant response rating, Oilseed Rape [7, 16] | Plant response rating, Wheat [8, 15] | Plant response rating, Wheat [8, 16] | Plant response rating, Wheat [8, 17] | Plant response rating, Crabgrass, Large [9, 16] | Plant response rating, Johnsongrass [12, 13] | Plant response rating, Johnsongrass [12, 16] | Plant response rating, Johnsongrass [12, 17] | Plant response rating, Johnsongrass [12, 18]
20: Plant response rating, Nutsedge, Yellow [4, 18] | Plant response rating, Foxtail, Giant [6, 13] | Plant response rating, Foxtail, Giant [6, 16] | Plant response rating, Crabgrass, Large [9, 14] | Plant response rating, Barnyardgrass [11, 13] | Barnyardgrass plant response rating [11, 20]
85: Plant response rating, Nutsedge, Yellow [4, 14] | Plant response rating, Waterhemp [5, 18] | Plant response rating, Foxtail, Giant [6, 15] | Plant response rating, Oilseed Rape [7, 14] | Plant response rating, Oilseed Rape [7, 17] | Oilseed Rape plant response rating [7, 19]
70: Plant response rating, Waterhemp [5, 15] | Plant response rating, Waterhemp [5, 16] | Plant response rating, Foxtail, Giant [6, 14] | Plant response rating, Oilseed Rape [7, 13]
50: Nutsedge, Yellow plant response rating [4, 19]
5: Plant response rating, Wheat [8, 13] | Crabgrass, Large plant response rating [9, 20] | Plant response rating, Barnyardgrass [11, 16] | Plant response rating, Johnsongrass [12, 14] | Plant response rating, Johnsongrass [12, 15]
55: Plant response rating, Foxtail, Giant [6, 17] | Plant response rating, Oilseed Rape [7, 15] | Plant response rating, Barnyardgrass [11, 18]
25: Plant response rating, Nutsedge, Yellow [4, 17] | Plant response rating, Wheat [8, 14] | Plant response rating, Barnyardgrass [11, 14]
30: Plant response rating, Oilseed Rape [7, 18] | Plant response rating, Barnyardgrass [11, 15]
40: Plant response rating, Crabgrass, Large [9, 15]
100: Plant response rating, Lambsquarters [3, 15] | Lambsquarters plant response rating [3, 19] | Waterhemp plant response rating [5, 19] | Galium plant response rating [10, 19]
98: Plant response rating, Ragweed [1, 15] | Plant response rating, Ragweed [1, 18] | Ragweed plant response rating [1, 19] | Plant response rating, Lambsquarters [3, 14] | Plant response rating, Lambsquarters [3, 18] | Plant response rating, Galium [10, 18]
45: Plant response rating, Nutsedge, Yellow [4, 13]

Cc1nn(C)c(=O)c(-c2cccc3ccc(Br)cc23)c1O [Compound 126]
70: Plant response rating, Nutsedge, Yellow [4, 14]
75: Plant response rating, Waterhemp [5, 13]
60: Nutsedge, Yellow plant response rating [4, 21] | Plant response rating, Oilseed Rape [7, 13] | Plant response rating, Oilseed Rape [7, 14]
50: Plant response rating, Barnyardgrass [11, 15]
98: Plant response rating, Galium [10, 14] | Plant response rating, Galium [10, 15]
15: Foxtail, Giant plant response rating [6, 21] | Plant response rating, Foxtail, Giant [6, 14] | Plant response rating, Johnsongrass [12, 14]
10: Soybean plant response rating [2, 21] | Plant response rating, Crabgrass, Large [9, 13] | Plant response rating, Johnsongrass [12, 13] | Johnsongrass plant response rating [12, 21]
0: Plant response rating, Wheat [8, 13] | Wheat plant response rating [8, 21] | Plant response rating, Wheat [8, 14]
100: Plant response rating, Waterhemp [5, 15]
85: Plant response rating, Ragweed [1, 13] | Plant response rating, Nutsedge, Yellow [4, 15] | Plant response rating, Oilseed Rape [7, 15]
5: Plant response rating, Soybean [2, 13] | Plant response rating, Foxtail, Giant [6, 13] | Plant response rating, Wheat [8, 15]
20: Plant response rating, Soybean [2, 14] | Crabgrass, Large plant response rating [9, 21]
35: Plant response rating, Soybean [2, 15] | Plant response rating, Nutsedge, Yellow [4, 13] | Plant response rating, Barnyardgrass [11, 14]
25: Plant response rating, Foxtail, Giant [6, 15] | Plant response rating, Barnyardgrass [11, 13] | Plant response rating, Johnsongrass [12, 15]
80: Plant response rating, Lambsquarters [3, 13] | Oilseed Rape plant response rating [7, 21]
95: Plant response rating, Ragweed [1, 14] | Plant response rating, Ragweed [1, 15] | Lambsquarters plant response rating [3, 21] | Plant response rating, Lambsquarters [3, 14] | Plant response rating, Lambsquarters [3, 15] | Plant response rating, Waterhemp [5, 14] | Galium plant response rating [10, 21]
90: Ragweed plant response rating [1, 21] | Waterhemp plant response rating [5, 21] | Plant response rating, Galium [10, 13]
30: Plant response rating, Crabgrass, Large [9, 14] | Plant response rating, Crabgrass, Large [9, 15] | Barnyardgrass plant response rating [11, 21]
